Data taken from PubChem BioAssay AID1996.
≈ marks a conversion by molar mass, not a printed value.

Conditions: buffer; pH 7.4; 200.0 µM

Row | Compound | solubility kinetic
1 | Cc1ccc(OCC(O)CN2CCCC2)cc1 (configuration not stated) | > 35.3 µg/mL
2 | O=c1c2ccccc2ncn1Cc1ccc2c(c1)OCO2 | 15.1 µg/mL (≈ 53.9 µM)
3 | c1cncc(-c2csc(-c3cccnc3)n2)c1 | > 35.9 µg/mL
4 | CC(C)(C)c1csc(NC(=O)C2=COCCO2)n1 | 40.2 µg/mL (≈ 150 µM)
5 | CC(=O)NCCC(=O)N1CCCC(N(C)CCc2ccccc2)C1 (configuration not stated) | > 49.7 µg/mL
6 | CN(C)C/C=C/C(O)(c1ccccc1)c1ccccc1 | > 40.1 µg/mL
7 | CCN(CC(=O)NCCN1CCOCC1)S(=O)(=O)c1ccc(F)cc1 | > 56 µg/mL
8 | CCN(CC)c1nc2c(c(=O)n(C)c(=O)n2C)n1CCCc1ccccc1 | 50.7 µg/mL (≈ 137 µM)
9 | O=C1CC(N2CCSCC2)C(=O)N1c1ccc(Br)cc1 (configuration not stated) | > 53.3 µg/mL
10 | CC1=C([N+](=O)[O-])C(c2ccc3c(c2)OCO3)N(C)C(=O)N1C (configuration not stated) | 36.4 µg/mL (≈ 119 µM)
11 | COCCOc1ccc(C(F)(F)F)cc1N | 31.9 µg/mL (≈ 136 µM)
12 | CC(C)(C)NC(=O)NCCc1ccccc1 | 30 µg/mL (≈ 136 µM)
13 | CC1CCCC(NC(=O)c2cccs2)C1C (configuration not stated) | 23 µg/mL (≈ 96.9 µM)
14 | O=C1CN(C(=O)COC(=O)Cc2ccccc2F)c2ccccc2N1 | > 51.3 µg/mL
15 | O=C(Cc1ccc(F)cc1)OCN1C(=O)c2ccccc2C1=O | 39.8 µg/mL (≈ 127 µM)
16 | CCCN1CCC(N2CCN(c3ccc([N+](=O)[O-])cc3)CC2)CC1 | 32.3 µg/mL (≈ 97.2 µM)
17 | NC(=O)C[n+]1cccc(/C=N/O)c1.[Cl-] | > 32.3 µg/mL
18 | N#Cc1c(NCCCO)nc(NCc2ccccc2)c2c1CCN(Cc1ccccc1)C2 | 7.7 µg/mL (≈ 18 µM)
19 | CCCC(=O)Nc1sc2c(c1C(=O)OCC)CC(C)(C)OC2 | 4.6 µg/mL (≈ 14.1 µM)
20 | O=C(CSc1nnc(C2CC2)n1C1CC1)c1ccccc1F | > 47.6 µg/mL
21 | CC(C)(C)C(=O)CSc1ncccn1 | 24.3 µg/mL (≈ 116 µM)
22 | O=C(COc1ccccc1Br)NC1CC1 | > 40.5 µg/mL
23 | CCOCC(=O)N1CCN(Cc2ccc3c(c2)OCO3)CC1 | > 46 µg/mL
24 | COc1cc(OC)cc(C(=O)NCC(=O)OC2CCCCC2=O)c1 (configuration not stated) | > 50.3 µg/mL
25 | CCN1C(=O)N(CC)C2C1N(CO)C(=O)N2CO (configuration not stated) | > 38.7 µg/mL

Row | Compound | solubility kinetic
26 | CN(C)C(=O)CCCCCCCCC(=O)N(C)C | > 38.5 µg/mL
27 | CC(C)CCN(C(=O)c1ccccn1)c1c(N)n(Cc2ccccc2)c(=O)[nH]c1=O | 56.9 µg/mL (≈ 140 µM)
28 | C#CCOC(=O)Nc1ccc(OCC(F)(F)F)nc1 | 19.2 µg/mL (≈ 70 µM)
29 | Cc1ccnc(N2CCCC(C(=O)NC3CC3)C2)n1 (configuration not stated) | 37.3 µg/mL (≈ 143 µM)
30 | COc1ccc(CC(=O)Nc2cc(S(=O)(=O)Nc3ccc(OC)cc3)ccc2OC)cc1 | 14.6 µg/mL (≈ 32 µM)
31 | S=C(NCCc1c[nH]c2ccccc12)NC1CC1 | > 38.9 µg/mL
32 | Nc1ccc(CCc2ccc(N)cc2)cc1 | 22 µg/mL (≈ 104 µM)
33 | CCc1cc(=O)[nH]c(SC/C=C/c2ccccc2)n1 | 10.7 µg/mL (≈ 39.3 µM)
34 | CC(C)CNc1nc(N)c([N+](=O)[O-])c(NCc2ccccc2)n1 | < 0.1 µg/mL
35 | O=c1c2ccccc2nc(/C=C/c2cc(Br)ccc2O)n1CCO | 6.1 µg/mL (≈ 15.8 µM)
36 | O=C(Nc1cccnc1)C12CC3CC(CC(C3)C1)C2 | > 38.5 µg/mL
37 | COc1cccc(/C=N/N2CCN(Cc3ccccc3)CC2)c1O | > 48.8 µg/mL
38 | Cc1ccc(S(=O)(=O)NC2CCCCCCC2)cc1 | 24.3 µg/mL (≈ 86.3 µM)
39 | COc1ccc([C@@H]2Sc3ccccc3NC(=O)[C@@H]2O)cc1 | 6.2 µg/mL (≈ 20.6 µM)
40 | Oc1ccc2ccccc2c1C=Nc1ccccc1Br | < 0.7 µg/mL
41 | CC1CC(C)CN(C(=O)COC(=O)c2ccc3c(c2)OCCO3)C1 (configuration not stated) | 49.5 µg/mL (≈ 148 µM)
42 | O=[N+]([O-])c1cccc(NC(=S)N2CCN(c3ccccn3)CC2)c1 | 1.2 µg/mL (≈ 3.49 µM)
43 | O=C(Nc1cccc(NC(=O)C2CCCO2)c1)C1CCCO1 (configuration not stated) | > 45.7 µg/mL
44 | CC(C)c1nc2sc3c(SCC(N)=O)ncnc3c2c2c1CCC2 | 0.5 µg/mL (≈ 1.39 µM)
45 | O=S(=O)(NCc1cccnc1)c1ccc2ccccc2c1 | 41.3 µg/mL (≈ 138 µM)
46 | Cc1ccsc1C(=O)OCC(=O)N1C(C)CCCC1C (configuration not stated) | > 44.3 µg/mL
47 | O=C(NCCO)C(=O)Nc1cc2c3c(c1)CCN3C(=O)CC2 | > 45.5 µg/mL
48 | O=C(COC(=O)c1ccccc1Br)NC(=O)NCc1ccccc1 | 5.1 µg/mL (≈ 13 µM)
49 | CSc1ncccc1C(=O)OCC(=O)NC(C)CCc1ccccc1 (configuration not stated) | 29.1 µg/mL (≈ 81.2 µM)

Further lines, results first:

Row | solubility kinetic | Compound
50 | 1.2 µg/mL (≈ 4.15 µM) | Cc1cc(C(=O)COC(=O)c2ccc(F)cc2)c(C)n1C
51 | > 41.3 µg/mL | COc1cc(OC)cc(C(=O)NCCc2cnc[nH]2)c1
52 | 2.1 µg/mL (≈ 6.43 µM) | O=C(NCCc1ccc(Cl)cc1)C(=O)c1c[nH]c2ccccc12
53 | 43.8 µg/mL (≈ 133 µM) | CN(C)/C=C(\c1cnc(Cl)s1)S(=O)(=O)c1ccccc1
54 | > 45.5 µg/mL | O=C(OCC(=O)N1CCCC1)c1cnc(Cl)c(Cl)c1
55 | 28.4 µg/mL (≈ 96.5 µM) | COC(=O)c1sccc1NC(=O)Nc1ccc(F)cc1
56 | 40.3 µg/mL (≈ 147 µM) | CNC(=O)c1ccccc1Sc1ccccc1CO
57 | > 53.7 µg/mL | COc1cccc(CNCCO)c1OCc1ccc(Cl)cc1.Cl
58 | 37.7 µg/mL (≈ 114 µM) | O=C(Nc1cccc(S(=O)(=O)N2CCCC2)c1)c1cccnc1
59 | 1.4 µg/mL (≈ 4.42 µM) | Cc1ccc(C)c(C(C)NC(=S)NCc2ccc(F)cc2)c1 (configuration not stated)
60 | > 40.4 µg/mL | O=C(NCCCc1nc2ccccc2[nH]1)c1ccco1
61 | 2.9 µg/mL (≈ 9.97 µM) | Cc1cc(OCC(=O)Nc2ccncc2)cc(C)c1Cl
62 | 55.5 µg/mL (≈ 143 µM) | CS(=O)(=O)N(CC(=O)Nc1ccc(Br)cc1)C1CCCCC1
63 | 24.8 µg/mL (≈ 92.8 µM) | COc1ccccc1NC(=O)Nc1ccccc1C#N
64 | 12.6 µg/mL (≈ 35.4 µM) | CC(NC(=O)CNC(=O)c1cccs1)c1cccc(C(F)(F)F)c1 (configuration not stated)
65 | 29.2 µg/mL (≈ 102 µM) | CC(C)Cc1ccc(C(=O)NCCOc2ccccc2)o1
66 | 1.1 µg/mL (≈ 4.16 µM) | O=C(/C=C/c1ccc(Cl)cc1)Nc1nccs1
67 | < 0.2 µg/mL | COC(=O)Cn1c2ccc(C)cc2c2nc3ccccc3nc21
68 | 49.5 µg/mL (≈ 145 µM) | CCn1c(NC(C)=O)c(-c2ccccc2Cl)c(=O)c2ccccc21
69 | 2.1 µg/mL (≈ 6.49 µM) | CC(C)COC(=O)c1ccc(N2C(=O)c3ccccc3C2=O)cc1
70 | > 36.2 µg/mL | C#Cc1cccc(NC(=O)Cc2cccs2)c1
71 | > 45 µg/mL | O=C(Nc1cccc(C(=O)O)c1)Nc1ccc2c(c1)OCO2
72 | 37.7 µg/mL (≈ 145 µM) | CC1CCN(C(=O)c2cc(-c3ccco3)on2)CC1
73 | 15.6 µg/mL (≈ 48.3 µM) | Cc1noc(C)c1C(=O)OCC(=O)NCc1ccc(Cl)cc1
74 | 2.3 µg/mL (≈ 6.7 µM) | CCc1noc(C)c1C(=O)Nc1nc(-c2ccc(OC)cc2)cs1

Row | solubility kinetic | Compound
75 | 5.7 µg/mL (≈ 18.4 µM) | COc1ccc(-c2noc(CN(C)Cc3ccccc3)n2)cc1
76 | > 35.3 µg/mL | COc1cccc(NC(=O)C2CCOC2=O)c1 (configuration not stated)
77 | 2.4 µg/mL (≈ 6.69 µM) | Cc1ccc(S(=O)(=O)N(C)C)cc1NC(=O)c1sccc1Cl
78 | 39.7 µg/mL (≈ 119 µM) | Cc1cc(C(=O)NC2CCCN(Cc3ccc(Cl)cc3)C2)no1 (configuration not stated)
79 | > 41.6 µg/mL | O=C(N/N=C/c1ccc2nccnc2c1)c1ccncc1
80 | 11.5 µg/mL (≈ 33.9 µM) | COc1nccc(C(F)(F)F)c1C(=O)NC(=O)Nc1ccccc1
81 | > 47.5 µg/mL | O=C(Nc1cccc(Cl)c1)C1CCCN(c2cnccn2)C1 (configuration not stated)
82 | 28.2 µg/mL (≈ 104 µM) | Cc1noc(NC(=O)c2ccc(Cl)cc2)c1Cl
83 | 60.4 µg/mL (≈ 131 µM) | CCOC(=O)c1ccccc1NC(=O)Cc1ccc(OC)c(S(=O)(=O)N2CCOCC2)c1
84 | 2.6 µg/mL (≈ 8.19 µM) | N/C(Cc1ccc([N+](=O)[O-])cc1)=N\OC(=O)c1ccccc1F
85 | 40.7 µg/mL (≈ 120 µM) | CN1CCN(C(=O)/C(=C/c2ccco2)NC(=O)c2ccccc2)CC1
86 | 32.1 µg/mL (≈ 121 µM) | Cc1ccc(NCc2nc3ccccc3n2C)c(C)c1
87 | 29 µg/mL (≈ 135 µM) | O=C(NCCO)Nc1ccc(Cl)cc1
88 | 32.5 µg/mL (≈ 115 µM) | COc1ccc(C(=O)NCc2ccc3c(c2)CCO3)cc1
89 | 40.9 µg/mL (≈ 109 µM) | Cc1onc(-c2c(Cl)cccc2Cl)c1C(=O)N(C)Cc1ccccc1
90 | > 54.2 µg/mL | CCCc1cc(=O)[nH]c(SCC(=O)NCc2ccc3c(c2)OCO3)n1
91 | < 0.2 µg/mL | CCCCOc1ccc(/C(O)=C(\C#N)c2nc3ccccc3[nH]2)cc1
92 | 2 µg/mL (≈ 7.16 µM) | COc1ccc(N/C=C2\CCc3ccccc3C2=O)cc1
93 | 9.8 µg/mL (≈ 36.9 µM) | CC(NC(=O)c1cccs1)c1ccc(Cl)cc1 (configuration not stated)
94 | < 0.3 µg/mL | CS(=O)(=O)N1CCc2cc(C(=O)Nc3cccc([N+](=O)[O-])c3)ccc21
95 | 2.9 µg/mL (≈ 8.81 µM) | COc1cccc(NC(=O)CNC(=O)c2ccc([N+](=O)[O-])cc2)c1
96 | > 32.3 µg/mL | O=C(O)c1ccc2[nH]c3c(c2c1)CCCC3
97 | 1.8 µg/mL (≈ 5.64 µM) | CSc1ncccc1C(=O)Nc1nc2ccc(F)cc2s1
98 | > 51.3 µg/mL | Cc1ccc[n+](CC(=O)Nc2ccc(Cl)c([N+](=O)[O-])c2)c1.[Cl-]
99 | > 40.6 µg/mL | Cc1ccccc1NC(=O)CN1CCOCC1.Cl

Row | solubility kinetic | Compound
100 | 6.6 µg/mL (≈ 20.3 µM) | CC(C)(C)NC(=O)CSc1nc(-c2ccc(F)cc2)cs1
101 | > 45.7 µg/mL | CCN(CC)C(=O)c1cccc(NC(=O)C2=COCCO2)c1
102 | > 43.3 µg/mL | Cn1c(SCC(=O)NC2CC2)nnc1-c1ccccc1
103 | > 38.9 µg/mL | CCOC(=O)c1c(O)c2cccc3c2n(c1=O)CC3
104 | > 47.3 µg/mL | O=C(CNC(=O)c1ccc2c(c1)OCO2)Nc1ncccc1O
105 | > 43.5 µg/mL | O=C(O)c1ccc(Cl)c(S(=O)(=O)N2CCCC2)c1
106 | 25.7 µg/mL (≈ 78.5 µM) | COc1cc2c(cc1OC)/C(=C/C(=O)c1ccc(F)cc1)NCC2
107 | 0.2 µg/mL (≈ 0.737 µM) | CCOC(=O)c1ccc(Nc2nc(C)cc(C)n2)cc1
108 | > 47.5 µg/mL | CC(C)(CN1CCCC1)NS(=O)(=O)c1ccc(Cl)cc1
109 | > 53.9 µg/mL | CCCCOc1ccc(C(=O)NCC(=O)NNC(=O)c2ccco2)cc1
110 | 5.6 µg/mL (≈ 14 µM) | Cc1ccccc1CC(=O)N1CCN(S(=O)(=O)c2ccc(Cl)s2)CC1
111 | > 43.6 µg/mL | C=CCN(CC=C)C(=S)NC(=O)c1ccc(OC)cc1
112 | > 32.6 µg/mL | Cc1ccc(NC(=O)Nc2ccon2)cc1
113 | < 0.7 µg/mL | CCOc1ccc(-n2c(C)c(C(C)=O)c3cc(O)ccc32)cc1
114 | 51.5 µg/mL (≈ 125 µM) | CC(C)(C)N1C(=O)c2ccc(C(=O)Nc3cc(C(=O)O)cc(C(=O)O)c3)cc2C1=O
115 | 0.2 µg/mL (≈ 0.624 µM) | CC(=O)c1cc(C#N)c(N2CCN(c3ccccc3)CC2)nc1C
116 | 6 µg/mL (≈ 19.3 µM) | Cc1cc(SCc2ccc(Br)cc2)nc(=O)[nH]1
117 | 33.9 µg/mL (≈ 134 µM) | Cc1nc2ccccc2n1CC(O)c1ccccc1 (configuration not stated)
118 | > 25.1 µg/mL | CC(=O)Nc1cc(O)cc(O)c1
119 | > 30.5 µg/mL | Cc1[nH]c2c(C)cccc2c1CC(=O)O
120 | 1.2 µg/mL (≈ 3.21 µM) | COc1ccccc1NC(=O)Cn1cc(C(=O)c2ccco2)c2ccccc21
121 | > 42.5 µg/mL | Cc1ccc(OCC(=O)NC(C)c2ccccc2)cc1C (configuration not stated)
122 | > 50.4 µg/mL | Cc1cc[n+](CC2OCc3ccccc3CO2)cc1.[Br-]
